Four compounds from US5270457A, “Cardiac steriod glycosides” (University of Manitoba, priority 1992, dated 1993) can be followed below.

Where a name gives a salt, the structure may show the parent alone.

This experiment has as its target Na/K-ATPase. Put plainly: 3H-ouabain radioligand binding assay (RBA). The following applies: for IC50: 3H-ouabain radioligand binding assay (RBA). The source says: The potency of steroids to displace the labelled cardiac glycoside (i.e. ouabain) in the assay parallel their biological activity, that is their cardiac glycoside-like activity, in their ability to inhibit Na/K-ATPase and elicit characteristic cellular response.

`C[C@@H]1O[C@@H](O[C@H]2CC[C@@]3(C)[C@H](CC[C@@H]4[C@@H]3CC[C@]3(C)[C@@H](CN)CC[C@]43O)C2)[C@H](O)[C@H](O)[C@H]1O` [Example 1, 14-Hydroxy-3β-(α-L-rhamnopyranosyl)oxy-20-amino-21-nor-5β14β-pregnane hydrochloride]: the IC50 – broadly, the midpoint of a concentration-inhibition curve – worked out at 60 nM. The same compound gave an IC50 (unit printed 'nm') of 60 nM.

`C[C@@H]1O[C@@H](O[C@H]2CC[C@@]3(C)[C@H](CC[C@@H]4[C@@H]3CC[C@]3(C)[C@@H](C[N+](=O)[O-])CC[C@]43O)C2)[C@H](O)[C@H](O)[C@H]1O` [Example 2, 14-Hydroxy-3β-(α-L-rhamnopyranosyl)oxy-20-nitro-21-nor-5β,14β-pregnane] returned an IC50 of 11 nM. This compound also yielded an IC50 (unit printed 'nm') of 11 nM. Moreover, the “potency compared with Example 1 and Example 4” value (comparison of IC50 values, in words) was “significantly greater than exhibited by the corresponding amino derivative (Example 1) and tridigitoxosyl derivative (Example 4)”. `CC1OC(OC2C(O)CC(OC3C(O)CC(OC4CCC5(C)C(CCC6C5CCC5(C)C(C[N+](=O)[O-])CCC65O)C4)OC3C)OC2C)CC(O)C1O` [Example 4, 14-Hydroxy-3 β-(tris-β-D-digitoxosyl)oxy-20-nitro-21-nor-5β,14β-pregnane]: the concentration for half-maximal inhibition (IC50) is 60 nM. The same measure, in the same setting: with `CC1OC(OC2C(O)CC(OC3C(O)CC(OC4CCC5(C)C(CCC6C5CCC5(C)C(CN)CCC65O)C4)OC3C)OC2C)CC(O)C1O` [Example 3, 14-Hydroxy-3β-(tris-β-D-digitoxosyl)oxy-20-amine-21-nor-5β,14β-pregnane] the figure was 400 nM.
